Experimental data published in patent US9139615B2, “High-affinity, dimeric inhibitors of PSD-95 as efficient neuroprotectants against ischemic brain damage and for treatment of pain” (University of Copenhagen, priority 2011, dated 2015).
Entries after “also recorded” stand apart in the source; their conditions may differ.

Legend:
Assay type in all cases: in vivo, mice
[1] = tested on: CFA-induced mechanical allodynia/hyperalgesia; experiment: Complete Freund's adjuvant (CFA) inflammatory pain, von Frey test; conditions: for CFA-induced hyperalgesia: 0.1 mg/kg, given simultaneously with CFA
[2] = tested on: long-term reference memory; experiment: Social transmission of food preference (STFP) test; conditions: 0.1 mg/kg (dose reducing hyperalgesia)
Procedure: STFP was conducted in two phases. […] A minimum of 2 and a maximum of 5 licking/sniffing interactions were set as criteria for appropriate acquisition of the odour cue. […] Second phase: following a 24-hour retention interval, the observer mice were placed individually in cages containing two trays of crushed food scented with cinnamon or cocoa, respectively. The amount eaten from the cued food over the novel food is taken as an index of memory for the previously cued food. […] Yet, experiments were designed in a balanced fashion to ensure that an equal number of mice within each treatment group were cued with cinnamon and cocoa, respectively.
(§1) Cognitive data: In the social transmission of food preference test, the preference for the cued food was expressed as a discrimination index, DI=(cued−novel)/(cued+novel). In the modified Y-maze, the preference for the novel arm was expressed as a discrimination index, DI=(time in novel−time in familiar)/(time in novel+time in familiar). STFP and Y-maze data were analysed by one-way ANOVA followed by Planned Comparisons was performed to assess treatment effects on the discrimination index.

attention = experiment: Modified Y-maze test of attention; conditions: 0.05 and 0.1 mg/kg
Procedure: Testing was carried out in a clear Plexiglass maze composed of 2 perpendicular arms connected to a runway. The 2 arms (available for exploration) and runway were 50 cm long and 8 cm wide, surrounded by clear Plexi-glass walls 30 cm high. Each arm met at a central platform equipped with black removable partitions, enabling arms to be opened and closed as desired. The whole maze was enclosed in a triangular black Plexiglass box (1×1×1 m). The walls of this outer box surrounding each exploration arm were covered with distinct optical cues, e.g., white horizontal or vertical lines. […] The cumulative time spent in each arm was recorded during this test session by an automated video tracking system (Ethovision, Noldus). A discrimination index (DI) was calculated for each mouse, defined as the difference in time spent in the novel and the familiar arm divided by the total time spent in the novel and the familiar arm during phase 2 testing, i.e. DI=(novel−familiar)/(novel+familiar).
as §1, with “STFP and Y-maze data were analysed by one-way ANOVA followed by Planned Comparisons was performed to assess treatment effects on the discrimination index.” left out

motor performance = experiment: Rotarod test of motor performance (side effects); conditions: 0.1 mg/kg, at 15, 30, 45 and 60 min
Procedure: Motor function was evaluated using an accelerating rotarod (MedAssociates, Inc., VT, USA). The rotarod (3.2 cm diameter) speed was increased from 4 to 40 rpm over a 300 s period with the minimum time possible to spend on the rod designated as 0 s and the maximum cut-off time set at 310 s. Each mouse was tested immediately prior to drug treatment (t=0), and again 15, 30, 45 and 60 minutes after drug treatment. When an animal fell off the rotating drum, a photobeam was automatically broken to record the amount of time spent on the rotating rod.
Motor performance: In the rotarod test, treatment effect on motor coordination was analysed using a two-way RM ANOVA, with treatment as the independent factor and time as repeated measure. Planned comparisons procedure was used to assess treatment effects over time.

In the case of `C[C@]12N[C@H](Cc3ccccc31)c1ccccc12` [MK-801], the CFA-induced hyperalgesia ([1]; after 1 hour) is reported as “significantly reversed the CFA-induced hyperalgesia”, the CFA-induced hyperalgesia ([1]; after 24 hours) is reported as “significant reversal was still observed” and the CFA-induced mechanical hyperalgesia ([1]; administered concurrently with CFA, 1 hour and 24 hours after treatment) is reported as “prevented the development of CFA-induced mechanical hyperalgesia”. The “discrimination index, social transmission of food preference” value [2] was “induced cognitive deficits; also recorded: significantly reduced the discrimination index”, the “discrimination index, modified Y-maze” value (attention) was “induced cognitive deficits; also recorded: discrimination index was reduced” and the “motor performance, time on the rotarod” value (motor performance) was “motor deficits; also recorded: significantly decreased time on the rotarod”.
